Source: US7109193B2, “Tricyclic diazepines tocolytic oxytocin receptor antagonists” (Wyeth, priority 2001, dated 2006)

target: T1, human vasopressin V1a receptor subtype (Homo sapiens, UniProt P37288); experiment: Vasopressin binding in Chinese Hamster Ovary cell membranes expressing human vasopressin V1a subtype receptors; conditions: 100 nM, CHO cell membranes, [3H]Manning ligand, values without parentheses
T1 construct: host or cells: CHO cells (pZeoSV vector for the Thibonnier line)
Procedure, shortened: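 Displacement of [3H]Manning ligand (8 nM working solution) from human V1a receptors in CHO cell membranes, 25–50 μg protein per well. Incubation ran 60 min at room temperature in 50 mM Tris-HCl pH 7.4 with protease inhibitors, followed by filtration and scintillation counting. Results are given as IC50 or percent inhibition.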

T1 sequence (P37288 whole entry): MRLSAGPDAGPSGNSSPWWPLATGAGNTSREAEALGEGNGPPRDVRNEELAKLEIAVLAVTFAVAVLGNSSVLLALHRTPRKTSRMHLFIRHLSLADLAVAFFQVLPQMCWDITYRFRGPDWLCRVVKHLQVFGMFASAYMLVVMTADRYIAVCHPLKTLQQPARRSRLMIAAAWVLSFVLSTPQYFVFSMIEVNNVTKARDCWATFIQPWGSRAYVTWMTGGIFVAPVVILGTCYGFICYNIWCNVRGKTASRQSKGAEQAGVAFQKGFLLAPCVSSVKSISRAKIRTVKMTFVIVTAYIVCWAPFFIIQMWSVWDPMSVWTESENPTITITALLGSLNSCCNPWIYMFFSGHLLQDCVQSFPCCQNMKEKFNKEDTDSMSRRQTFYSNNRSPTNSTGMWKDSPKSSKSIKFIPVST

Structure (SMILES) | inhibition at 0.1 µM
COc1ccccc1-c1ccc(C(=O)N2Cc3ccc(C(=O)N[C@H]4CN5CCC4CC5)n3Cc3ccccc32)cc1 [Example 296, N-[(3R)-1-Azabicyclo[2.2.2]oct-3-yl]-10-[(2′-methoxy[1,1′-biphenyl]-4-yl)carbonyl]-10,11-dihydro-5H-pyrrolo[2,1-c][1,4]benzodiazepine-3-carboxamide] | 31%
COc1cc(-c2ccccc2C)c(Cl)cc1C(=O)N1Cc2ccc(C(=O)N[C@@H]3CN4CCC3CC4)n2Cc2ccccc21 [Example 297, N-[(3S)-1-Azabicyclo[2.2.2]oct-3-yl]-10-[(6-chloro-3-methoxy-2′-methyl-[1,1′-biphenyl]-4-yl)carbonyl]-10,11-dihydro-5H-pyrrolo[2,1-c][1,4]benzodiazepine-3-carboxamide] | -2%
COc1ccccc1-c1ccc(C(=O)N2Cc3ccc(C(=O)N[C@H]4CN5CCC4CC5)n3Cc3ccccc32)cc1C [Example 298, N-[(3R)-1-Azabicyclo[2.2.2]oct-3-yl]-10-[(2′-methoxy-2-methyl[1,1′-biphenyl]-4-yl)carbonyl]-10,11-dihydro-5H-pyrrolo[2,1-c][1,4]benzodiazepine-3-carboxamide] | 20%
COc1ccccc1-c1ccc(C(=O)N2Cc3ccc(C(=O)N[C@H]4CN5CCC4CC5)n3Cc3ccccc32)cc1OC [Example 299, N-[(3R)-1-Azabicyclo[2.2.2]oct-3-yl]-10-[(2,2′-dimethoxy[1,1′-biphenyl]-4-yl)carbonyl]-10,11-dihydro-5H-pyrrolo[2,1-c][1,4]benzodiazepine-3-carboxamide] | 14%
COc1ccccc1-c1ccc(C(=O)N2Cc3ccc(C(=O)N[C@@H]4CN5CCC4CC5)n3Cc3ccccc32)cc1OC [Example 300, N-[(3S)-1-Azabicyclo[2.2.2]oct-3-yl]-10-[(2,2′-dimethoxy[1,1′-biphenyl]-4-yl)carbonyl]-10,11-dihydro-5H-pyrrolo[2,1-c][1,4]benzodiazepine-3-carboxamide] | -2%
Cc1cc(C(=O)N2Cc3ccc(C(=O)N[C@H]4CN5CCC4CC5)n3Cc3ccccc32)ccc1-c1ccccc1C(F)(F)F [Example 301, N-[(3R)-1-Azabicyclo[2.2.2]oct-3-yl]-10-{[2-methyl-2′-(trifluoromethyl)[1,1′-biphenyl]-4-yl]carbonyl}-10,11-dihydro-5H-pyrrolo[2,1-c][1,4]benzodiazepine-3-carboxamide] | 1%
COc1cccc(-c2cc(OC)c(C(=O)N3Cc4ccc(C(=O)N[C@@H](CCCCNC(=O)OC(C)(C)C)C(N)=O)n4Cc4ccccc43)cc2Cl)c1 [Example 302, tert-Butyl (5S)-6-amino-5-[({10-[(6-chloro-3,3′-dimethoxy[1,1′-biphenyl]-4-yl)carbonyl]-10,11-dihydro-5H-pyrrolo[2,1-c][1,4]benzodiazepin-3-yl}carbonyl)amino]-6-oxohexylcarbamate] | -15%
COc1ccccc1-c1ccc(C(=O)N2Cc3ccc(C(=O)N[C@@H](CCCCNC(=O)OC(C)(C)C)C(N)=O)n3Cc3ccccc32)cc1OC [Example 303, tert-Butyl (5S)-6-amino-5-[({10-[(2,2′-dimethoxy[1,1′-biphenyl]-4-yl)carbonyl]-10,11-dihydro-5H-pyrrolo[2,1-c][1,4]benzodiazepin-3-yl}carbonyl)amino]-6-oxohexylcarbamate] | -4%
COc1cc(-c2ccccc2C)c(Cl)cc1C(=O)N1Cc2ccc(C(=O)N[C@@H](CCCCNC(=O)OC(C)(C)C)C(N)=O)n2Cc2ccccc21 [Example 304, tert-Butyl (5S)-6-amino-5-[({10-[(6-chloro-3-methoxy-2′-methyl[1,1′-biphenyl]-4-yl)carbonyl]-10,11-dihydro-5H-pyrrolo[2,1-c][1,4]benzodiazepin-3-yl}carbonyl)amino]-6-oxohexylcarbamate] | -7%
COc1cc(C(=O)N2Cc3ccc(C(=O)N4CCN(C)CC4)n3Cc3ccccc32)ccc1-n1c(C)ccc1C [Example 306, {10-[4-(2,5-Dimethyl-1H-pyrrol-1-yl)-3-methoxybenzoyl]-10,11-dihydro-5H-pyrrolo[2,1-c][1,4]benzodiazepin-3-yl}(4-methyl-1-piperazinyl)methanone] | 0%
COc1cc(C(=O)N2Cc3ccc(C(=O)N4CCCN(C)CC4)n3Cc3ccccc32)ccc1-n1c(C)ccc1C [Example 307, {10-[4-(2,5-Dimethyl-1H-pyrrol-1-yl)-3-methoxybenzoyl]-10,11-dihydro-5H-pyrrolo[2,1-c][1,4]benzodiazepin-3-yl}(4-methyl-1,4-diazepan-1-yl)methanone] | -7%
COc1cc(C(=O)N2Cc3ccc(C(=O)NCCCN(C)C)n3Cc3ccccc32)ccc1-n1c(C)ccc1C [Example 308, N-[3-(Dimethylamino)propyl]-10-[4-(2,5-dimethyl-1H-pyrrol-1-yl)-3-methoxybenzoyl]-10,11-dihydro-5H-pyrrolo[2,1-c][1,4]benzodiazepine-3-carboxamide] | -12%
COc1cc(C(=O)N2Cc3ccc(C(=O)N(C)CCN(C)C)n3Cc3ccccc32)ccc1-n1c(C)ccc1C [Example 309, N-[2-(Dimethylamino)ethyl]-10-[4-(2,5-dimethyl-1H-pyrrol-1-yl)-3-methoxybenzoyl]-N-methyl-10,11-dihydro-5H-pyrrolo[2,1-c][1,4]benzodiazepine-3-carboxamide] | 11%
COc1cc(C(=O)N2Cc3ccc(C(=O)N4CCC(N5CCCCC5)CC4)n3Cc3ccccc32)ccc1-n1c(C)ccc1C [Example 311, {10-[4-(2,5-Dimethyl-1H-pyrrol-1-yl)-3-methoxy-benzoyl]-10,11-dihydro-5H-pyrrolo[2,1-c][1,4]benzodiazepin-3-yl}[4-(1-piperidinyl)-1-piperidinyl]-methanone] | -5%
COc1cc(C(=O)N2Cc3ccc(C(=O)NCCCn4ccnc4)n3Cc3ccccc32)ccc1-n1c(C)ccc1C [Example 312, 10-[4-(2,5-Dimethyl-1H-pyrrol-1-yl)-3-methoxybenzoyl]-N-[3-(1H-imidazol-1-yl)propyl]-10,11-dihydro-5H-pyrrolo[2,1-c][1,4]benzodiazepine-3-carboxamide] | 7%
COc1cc(C(=O)N2Cc3ccc(C(=O)N4CCC(N5CCCC5)CC4)n3Cc3ccccc32)ccc1-n1c(C)ccc1C [Example 313, {10-[4-(2,5-Dimethyl-1H-pyrrol-1-yl)-3-methoxybenzoyl]-10,11-dihydro-5H-pyrrolo[2,1-c][1,4]benzodiazepin-3-yl}[4-(1-pyrrolidinyl)-1-piperidinyl]methanone] | 2%
COc1cc(C(=O)N2Cc3ccc(C(=O)NCCN4CCCCC4)n3Cc3ccccc32)ccc1-n1c(C)ccc1C [Example 314, 10-[4-(2,5-Dimethyl-1H-pyrrol-1-yl)-3-methoxybenzoyl]-N-[2-(1-piperidinyl)ethyl]-10,11-dihydro-5H-pyrrolo[2,1-c][1,4]benzodiazepine-3-carboxamide] | 6%
COc1cc(C(=O)N2Cc3ccc(C(=O)NCCC4CCCN4C)n3Cc3ccccc32)ccc1-n1c(C)ccc1C (stereo not drawn) [Example 315, 10-[4-(2,5-Dimethyl-1H-pyrrol-1-yl)-3-methoxybenzoyl]-N-[2-(1-methyl-2-pyrrolidinyl)ethyl]-10,11-dihydro-5H-pyrrolo[2,1-c][1,4]benzodiazepine-3-carboxamide] | 7%
COc1cc(C(=O)N2Cc3ccc(C(=O)N4CCN(CCN(C)C)CC4)n3Cc3ccccc32)ccc1-n1c(C)ccc1C [Example 316, {4-[2-(Dimethylamino)ethyl]-1-piperazinyl}{10-[4-(2,5-dimethyl-1H-pyrrol-1-yl)-3-methoxybenzoyl]-10,11-dihydro-5H-pyrrolo[2,1-c][1,4]benzodiazepin-3-yl}methanone] | 0%
COc1cc(C(=O)N2Cc3ccc(C(=O)N4CCN(CCN5CCOCC5)CC4)n3Cc3ccccc32)ccc1-n1c(C)ccc1C [Example 317, {10-[4-(2,5-Dimethyl-1H-pyrrol-1-yl)-3-methoxybenzoyl]-10,11-dihydro-5H-pyrrolo[2,1-c][1,4]benzodiazepin-3-yl}{4-[2-(4-morpholinyl)ethyl]-1-piperazinyl}methanone] | 10%
C=CCN1CCN(C(=O)c2ccc3n2Cc2ccccc2N(C(=O)c2ccc(-n4c(C)ccc4C)c(OC)c2)C3)CC1 [Example 318, (4-Allyl-1-piperazinyl){10-[4-(2,5-dimethyl-1H-pyrrol-1-yl)-3-methoxybenzoyl]-10,11-dihydro-5H-pyrrolo[2,1-c][1,4]benzodiazepin-3-yl}methanone] | 5%
COc1cc(C(=O)N2Cc3ccc(C(=O)N4CCN(C(C)C)CC4)n3Cc3ccccc32)ccc1-n1c(C)ccc1C [Example 319, {10-[4-(2,5-Dimethyl-1H-pyrrol-1-yl)-3-methoxybenzoyl]-10,11-dihydro-5H-pyrrolo[2,1-c][1,4]benzodiazepin-3-yl}(4-isopropyl-1-piperazinyl)methanone] | 9%
COc1cc(C(=O)N2Cc3ccc(C(=O)N4CCN(CCCN(C)C)CC4)n3Cc3ccccc32)ccc1-n1c(C)ccc1C [Example 320, {4-[3-(Dimethylamino)propyl]-1-piperazinyl}{10-[4-(2,5-dimethyl-1H-pyrrol-1-yl)-3-methoxybenzoyl]-10,11-dihydro-5H-pyrrolo[2,1-c][1,4]benzodiazepin-3-yl}methanone] | 4%
Cc1cc(C(=O)N2Cc3cccn3Cc3ncccc32)ccc1-c1ccccc1C(F)(F)F [Example 323F, (2-Methyl-2′-trifluoromethyl-[1,1′-biphenyl]-4-yl)-(4H,10H-3a,5,9-triaza-benzo[f]azulen-9-yl)-methanone] | 2%
